According to patent publication US4322308A, “Detergent product containing deodorant compositions” (priority 1977, dated 1982):

Tests used:
[1] = test system: body malodour (axillae of human subjects); assay: Odour Reduction Value Test (soap bars applied to the axillae of a human panel); format: in vivo; conditions: for Odour Reduction Value: 0 to 5 scale, 5 hours after washing
Experimental: As has been stated, the ability of toilet soap containing both a deodorant perfume and a deodorant other than a deodorant perfume to reduce body malodour was assessed by an odour reduction value test, somewhat similar to that described by Whitehouse and Carter in Proc. Scientific Section of the Toilet Goods Association, 48, 31 (1967) for the measurement of body odour inhibition by germicides in toilet soap.
The test described in that publication was modified in three ways: firstly a 0 to 5 instead of a 0 to 10 grading scale was employed, secondly grading of odour intensity was performed 5 hours after treatment instead of 24 hours, and thirdly, the concentration of deodorant perfume incorporated in the test detergent product was 1.5% by weight of the product.
In this test, the odour reduction value of a standard soap bar containing a deodorant perfume at a standard concentration is measured by assessing its effectiveness in reducing body malodour when the standard soap bar is used to wash the axillae (armpits) of a panel of human subjects.
Standard soap bars are prepared as follows, all amounts given being by weight.
A soap base there is used a neutral wet sodium soap containing 63% of total fatty matter of which 82% is tallow fatty acid and 18% is coconut oil fatty acid. To a homogeneous mixture of 9000 parts of this soap base and 340 parts of free coconut oil fatty acid at 80° C. are added with mixing, 9.4 parts of a 20% aqueous solution of tetrasodium ethylenediamine tetraacetate, 2.2 parts of a 60% aqueous solution of 1-hydroxyethane-1,1-diphosphonic acid and 7.2 parts of butylated hydroxy toluene (BHT) antioxidant dissolved in a little methylated spirits and the temperature of the mass is raised to 140° C. under superatmospheric pressure. The mass is then sprayed at about 30 mm of mercury, to produce a dried soap composition which is collected and extruded at 30° C. as noodles of about 12% moisture content.
9,770 parts of the soap noodles thus obtained are mixed at ambient temperature with 150 parts of the deodorant perfume to be tested, together with 30 parts of a titanium dioxide opacifier and 50 parts of a colourant suspension. The resulting mixture is milled and stamped into tablets. The deodorant perfume to be tested is therefore present at the standard level of 1.5%.
In other respects, the control bar should only contain those additives conventionally present in personal washing products and for the purpose in the amount conventionally used in the art.
A team of 2 to 4 Caucasian female assessors of age within the range of from 20 to 40 years is selected for olfactory evaluation on the basis that each is able to rank correctly the odour levels of the series of aqueous isovaleric acid solutions listed in Table 2 below, and each is able to detect the reduction in body odour following application to the axillae of human subjects of soap containing 2% germicides, according to the procedure described by Whitehouse and Carter.
A panel of 30 to 50 human subjects for use in the test is assembled from Caucasian male subjects of age within the range of from 20 to 55 years.
For two weeks before the start of a test, the panel subjects are assigned a non-deodorant soap bar for exclusive use of bathing and are denied the use of any type of deodorant or antiperspirant. At the end of this period, the subjects are randomly divided into two groups. The control soap bars are then applied to the left axillae of the first group and the right axillae of the second, and the test soap bars are applied to the right axillae of the first group and the left axillae of the second.
The soap bars are applied by a technician using a standard technique in which a wet flannel is soaped with the soap bar for 15 seconds, the axilla is washed with the soaped flannel for 30 seconds, then wiped with a water rinsed flannel and dried with a clean towel.

[2] = molecular target: T1, lipoxidase (E.C. 13.1.13) (Glycine max, UniProt P08170); assay: The Lipoxidase Test (inhibition of linoleic acid oxidation); format: biochemical; conditions: test substrate made with 0.5% by weight solution of the material in ethanol, borate buffer pH 9.0, OD at 234 nm
T1 sequence (P08170 1-839): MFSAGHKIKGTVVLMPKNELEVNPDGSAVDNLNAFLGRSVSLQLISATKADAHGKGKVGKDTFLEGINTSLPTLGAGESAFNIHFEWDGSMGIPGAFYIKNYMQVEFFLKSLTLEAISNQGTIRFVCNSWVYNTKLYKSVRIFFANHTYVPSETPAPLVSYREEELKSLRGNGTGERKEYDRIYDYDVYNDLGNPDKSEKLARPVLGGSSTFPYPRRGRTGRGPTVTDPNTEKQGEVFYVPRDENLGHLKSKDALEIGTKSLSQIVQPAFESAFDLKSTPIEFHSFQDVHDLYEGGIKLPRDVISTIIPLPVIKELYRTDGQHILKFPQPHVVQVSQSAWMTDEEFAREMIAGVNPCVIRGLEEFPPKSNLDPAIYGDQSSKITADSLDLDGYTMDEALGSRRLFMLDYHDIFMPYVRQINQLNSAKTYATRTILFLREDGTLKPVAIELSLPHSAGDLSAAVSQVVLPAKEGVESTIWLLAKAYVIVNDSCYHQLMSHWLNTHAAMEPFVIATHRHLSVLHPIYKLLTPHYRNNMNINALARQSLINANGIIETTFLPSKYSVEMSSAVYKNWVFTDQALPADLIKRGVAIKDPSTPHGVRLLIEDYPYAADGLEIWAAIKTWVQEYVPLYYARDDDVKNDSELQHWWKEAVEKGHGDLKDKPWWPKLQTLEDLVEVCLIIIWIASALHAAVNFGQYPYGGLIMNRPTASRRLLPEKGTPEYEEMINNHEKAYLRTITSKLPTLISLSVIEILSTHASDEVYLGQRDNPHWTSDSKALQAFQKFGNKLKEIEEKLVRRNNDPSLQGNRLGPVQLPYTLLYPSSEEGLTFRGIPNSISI

[3] = The Morpholine Test (depression of partial vapour pressure of morpholine); conditions: morpholine 0.25 g + perfume material 1 g, 37° C., headspace GC

O=C(Nc1ccc(Cl)cc1)Nc1ccc(Cl)c(Cl)c1 [3,3,4'-trichloro-carbanilide, 3,4,4'-trichlorocarbanilide]
Odour Reduction Value ([1]; 0.16 wt % germicide in soap bar vs control soap bar without germicide): 0.10 | Odour Reduction Value ([1]; 0.25 wt % germicide in soap bar vs control soap bar without germicide): 0.14 | Odour Reduction Value ([1]; 0.5 wt % germicide in soap bar vs control soap bar without germicide): 0.22 | Odour Reduction Value ([1]; 0.75 wt % germicide in soap bar vs control soap bar without germicide): 0.27 | Odour Reduction Value ([1]; 1.0 wt % germicide in soap bar vs control soap bar without germicide): 0.30 | Odour Reduction Value ([1]; 2.0 wt % germicide in soap bar vs control soap bar without germicide): 0.37 | maximum reduction in odour intensity obtainable (odour reduction value) ([1]; germicide alone in soap bar, irrespective of the amount of germicide): ≤ 0.4

O=C(Cc1ccccc1)OCCc1ccccc1 [Phenylethyl phenylacetate]
inhibition at 0.5 % strength ([2]; read-out: LIC (lipoxidase-inhibiting capacity, % inhibition)): 0% | RVR (Raoult variance ratio) [3]: 1.22

Dimyrcetol
LIC (lipoxidase-inhibiting capacity, % inhibition) [2]: 14%

Tetrahydromuguol
LIC (lipoxidase-inhibiting capacity, % inhibition) [2]: 24%

i-Nonyl acetate
LIC (lipoxidase-inhibiting capacity, % inhibition) [2]: 50%

i-Nonyl formate
LIC (lipoxidase-inhibiting capacity, % inhibition) [2]: 19%
